Source: article PMC6348443 (Journal of Medicinal Chemistry, 2018)
Where a name gives a salt, the structure may show the parent alone.

Columns and labels:
[1] = biological target: T1, MOR (Rattus norvegicus, UniProt P33535); assay: competition radioligand binding, rat brain membranes, [3H]DAMGO; settings: for Ki: rat brain membranes, read-out: opioid receptor binding Ki MOR; for Ki ratio MOR/DOR/KOR: from Ki in rat (MOR, DOR) and guinea-pig (KOR) brain membranes
T1 construct: Membranes were prepared from Sprague-Dawley rat brains or guinea-pig brains according to the described procedures; tissue Labortierkunde und Laborgenetik, Medizinische Universität Wien; host or cells: Sprague-Dawley rat brain without cerebella
Experimental: (§1) Competition binding assays using rat brain (MOR and DOR) and guinea-pig brain (KOR) membranes (Table 1) were performed according to published procedures.[44],[49] […] In addition, we have assessed binding at the human opioid receptors stably transfected in Chinese hamster ovary (CHO) cells (Table S1).
(§2) Membranes were prepared from Sprague-Dawley rat brains or guinea-pig brains according to the described procedures.[44],[45] Brains without cerebella were homogenized on ice in 5 vol/wt of ice-cold 50 mM Tris-HCl buffer (pH 7.4) and diluted in 30 vol/wt of the same buffer. After centrifugation at 40 000g for 20 min at 4 °C, the pellets were resuspended in 30 vol/wt of 50 mM Tris-HCl buffer (pH 7.4) and incubated at 37 °C for 30 min. The centrifugation step described above was repeated, and the final pellets were resuspended in 5 vol/wt of 50 mM Tris-HCl buffer (pH 7.4) containing 0.32 M sucrose and stored at −80 °C until use.
(§3) Rat brain membranes were incubated with either [^3H]DAMGO (1 nM, 45 min, 35 °C) or [^3H][Ile^5,6]deltorphin II (0.5 nM, 45 min, 35 °C) for labeling MOR or DOR receptors, respectively. Guinea-pig brain membranes were incubated with [^3H]U69,593 (1 nM, 30 min, 30 °C) for labeling KOR. Binding assays with CHO cell membranes were conducted at 25 °C for 60 min using [^3H]DAMGO (1 nM) or [^3H]diprenorphine (0.2 nM) for labeling MOR or DOR, respectively. Nonspecific binding was determined using 10 μM naloxone (rodent brain) or 1–10 μM of the unlabeled counterpart of each radioligand (CHO cells). Reactions were terminated by rapid filtration through Whatman glass fiber GF/C filters. Filters were washed three times with 5 mL of ice-cold 50 mM Tris-HCl buffer (pH 7.4) using a Brandel M24R cell harvester (Gaithersburg, MD). Radioactivity retained on the filters was counted by liquid scintillation counting using a Beckman Coulter LS6500 (Beckman Coulter Inc., Fullerton, CA). All binding experiments were performed in duplicate and repeated at least three times.
(§4) Data were analyzed and graphically processed using the GraphPad Prism 5.0 Software (GraphPad Prism Software Inc., San Diego, CA). For in vitro assays, inhibition constant (Ki in nM), potency (EC50 in nM), and efficacy (% stimulation) values were determined from concentration–response curves by nonlinear regression analysis. The Ki values were determined by the method of Cheng and Prusoff.[66] In the [^35S]GTPγS binding assays, efficacy was determined relative to the reference full opioid agonists, DAMGO (MOR), DPDPE (DOR), and U69,593 (KOR). In vitro data are presented as mean ± SEM of three to four independent experiments each performed in duplicate. […] Each experimental group included six to seven mice. Data were statistically evaluated using one-way ANOVA with Tukey’s post hoc test for multiple comparisons with significance set at P < 0.05.

[2] = biological target: T2, DOR (Rattus norvegicus, UniProt P33533); assay: competition radioligand binding, rat brain membranes, [3H][Ile5,6]deltorphin II; settings: rat brain membranes; read-out: opioid receptor binding Ki DOR
T2 construct: Membranes were prepared from Sprague-Dawley rat brains or guinea-pig brains according to the described procedures; tissue Labortierkunde und Laborgenetik, Medizinische Universität Wien; host or cells: Sprague-Dawley rat brain without cerebella
Experimental: as §1, §2, §3, §4

[3] = biological target: T3, KOR (Cavia porcellus, UniProt P41144); assay: competition radioligand binding, guinea-pig brain membranes, [3H]U69,593; settings: guinea-pig brain membranes; read-out: opioid receptor binding Ki KOR
T3 construct: Membranes were prepared from Sprague-Dawley rat brains or guinea-pig brains according to the described procedures; tissue Labortierkunde und Laborgenetik, Medizinische Universität Wien; host or cells: guinea-pig brain without cerebella
Experimental: as §1, §2, §3, §4

[4] = biological target: T4, MOR (Homo sapiens, UniProt P35372); assay: [35S]GTPγS binding assay, CHO-hMOR membranes; format: biochemical; settings: for EC50: [35S]GTPγS, CHO human MOR membranes, read-out: MOR EC50; for functional profile at MOR (full/partial agonist): full agonist ≥85% of the response to DAMGO; for Emax: relative to reference full agonist DAMGO, read-out: MOR % stim.
T4 construct: host or cells: CHO (CHO-hMOR)
Experimental: (§5) Efficacies are presented as percentage stimulation relative to the standard full agonists, [D-Ala^2,N-Me-Phe4,Gly-ol^5]enkephalin (DAMGO for MOR),[53] [D-Pen^2,D-Pen^5]enkephalin (DPDPE for DOR)[54] and N-methyl-2-phenyl-N-[(5R,7S,8S)-7-(pyrrolidin-1-yl)-1-oxaspiro[4.5]dec-8-yl]acetamide (U69,593 for KOR).[55]
(§6) Membranes from CHO cells expressing human opioid receptors were prepared in 50 mM Tris-HCl buffer (pH 7.7) according to a previously described procedure.[64] Cells expressing human opioid receptors grown at confluence were removed from the culture plates by scraping, homogenized in 50 mM Tris buffer (pH 7.7), using a Polytron homogenizer, then centrifuged once and washed by an additional centrifugation at 27 000g for 15 min, at 4 °C. The final pellet was resuspended in Tris buffer and stored at −80 °C until use. Protein content of brain and cell membrane preparation homogenates was determined by the method of Bradford using bovine serum albumin as the standard.[65]
(§7) Binding of [^35S]GTPγS to membranes from CHO cells stably expressing the human opioid receptors was conducted according to the published procedures.[49],[64] Cell membranes (5–10 μg) in 20 mM HEPES, 10 mM MgCl2, and 100 mM NaCl (pH 7.4) were incubated with 0.05 nM [^35S]GTPγS, 10 μM GDP, and various concentrations of test compound in a final volume of 1 mL, for 60 min at 25 °C. Nonspecific binding was determined using 10 μM GTPγS, and the basal binding was determined in the absence of test ligand. Samples are filtered over glass Whatman glass GF/B fiber filters and counted as described for binding assays. All experiments were performed in duplicate and repeated at least three times.
as §4

[5] = biological target: T5, DOR (Homo sapiens, UniProt P41143); assay: [35S]GTPγS binding assay, CHO-hDOR membranes; format: biochemical; settings: for increased agonist potency at DOR vs MOR: [35S]GTPγS EC50; for EC50: [35S]GTPγS, CHO human DOR membranes; for Emax: relative to reference full agonist DPDPE, read-out: DOR % stim.
T5 construct: host or cells: CHO (CHO-hDOR)
Experimental: as §5, §6, §7, §4

[6] = biological target: T6, KOR (Homo sapiens, UniProt P41145); assay: [35S]GTPγS binding assay, CHO-hKOR membranes; format: biochemical; settings: for EC50: [35S]GTPγS, CHO human KOR membranes, read-out: KOR EC50; for functional profile at KOR (full/partial agonist): partial agonist <85% of the response to U69,593; for Emax: relative to reference full agonist U69,593, read-out: KOR % stim.
T6 construct: host or cells: CHO (CHO-hKOR)
Experimental: as §5, §6, §7, §4

[7] = test system: male CD1 mice; assay: acetic acid-induced writhing assay after sc administration; format: in vivo, mouse; settings: for ED50: Mus musculus, 0.5 h, read-out: ED50 (95% CI), mice, sc, inhibition of writhing 30 min after drug administration
Experimental: Solutions of test compounds were prepared in sterile physiological 0.9% saline and further diluted to working doses in saline solution. Test compounds or saline (control) were administered by sc route in a volume of 10 μL/1 g of body weight. All doses are expressed in terms of salts. Separate groups of mice received the respective dose of compound, and individual mice were only used once for behavioral testing.
Writhing was induced in male CD1 mice by ip injection of a 0.6% acetic acid aqueous solution as described previously.[48],[62] Groups of mice were administered sc different doses of test compound or saline (control), and 5 min prior to testing (25 min after drug or saline), each animal received an ip injection of acetic acid solution. Each mouse was placed in individual transparent Plexiglas chambers, and the number of writhes was counted during a 10 min observation period. […] For the antagonism study, naloxone methiodide was sc co-administered with the respective opioid agonist, and writhing was assessed as described above.
as §4

Row | SMILES | Ki [1] [nM] | Ki [2] [nM] | Ki [3] [nM] | EC50 [4] [nM] | functional profile at MOR (full/partial agonist) [4] | Emax [4] [%] | increased agonist potency at DOR vs MOR [5] | EC50 [5] [nM] | Emax [5] [%] | EC50 [6] [nM] | functional profile at KOR (full/partial agonist) [6] | Emax [6] [%] | ED50 [7] [mg/kg] | ED50 (95% CI) ([7]; mice, inhibition of writhing 30 min after drug administration) | Ki ratio MOR/DOR/KOR [1] | increase in MOR binding affinity vs comparator ([1]; rat brain, 17b vs 4b, 16a/b vs 7a/b, 22a/b vs 7a, 7b and 9b, 14a vs 14b)
1 | CO[C@@]12CC[C@@H](N[C@H](C(=O)O)C(C)C)[C@@H]3Oc4c(O)ccc5c4[C@@]31CCN(C)[C@@H]2C5 [Compound 7b, (2S)-2-[(4,5α-Epoxy-3-hydroxy-14β-methoxy-17-methylmorphinan-6β-yl)amino]-3-methylbutyric Acid Dihydrochloride] | 3.04 ± 0.12 | 3.52 ± 0.04 | 305 ± 39 | 11.7 ± 5.7 | partial agonist | ~80 | 2–4 times | 5.73 ± 2.48 | 96 ± 9 | 1120 ± 411 | partial agonist | 68 ± 10 | 0.117 | – | – | –
2 | CO[C@@]12CC[C@H](N[C@@H](Cc3ccc(O)cc3)C(=O)O)[C@@H]3Oc4c(O)ccc5c4[C@@]31CCN(C)[C@@H]2C5.Cl.Cl [Compound 9a, (2S)-2-[(4,5α-Epoxy-3-hydroxy-14β-methoxy-17-methylmorphinan-6α-yl)amino]-3-(4-hydroxyphenyl)propionic Acid Dihydrochloride] | 0.83 ± 0.04 | 2.18 ± 0.98 | 39.5 ± 0.2 | 1.87 ± 0.44 | – | 92 ± 2 | – | 1.76 ± 0.22 | 88 ± 6 | 100 ± 6 | – | 62 ± 8 | < 0.02 | 14.6 (5.15–41.7) μg/kg | – | –
3 | CO[C@@]12CC[C@H](N[C@@H](Cc3c[nH]c4ccccc34)C(=O)O)[C@@H]3Oc4c(O)ccc5c4[C@@]31CCN(C)[C@@H]2C5 [Compound 10a, (2S)-2-[(4,5α-Epoxy-3-hydroxy-14β-methoxy-17-methylmorphinan-6α-yl)-amino]-3-(1H-indolo-3yl)propionic Acid Dihydrochloride] | 0.36 ± 0.01 | 1.02 ± 0.12 | 25.1 ± 9.3 | 0.51 ± 0.34 | – | 93 ± 9 | – | 2.52 ± 1.41 | 102 ± 8 | 70.1 ± 20.5 | – | 61 ± 8 | – | – | – | –
4 | CO[C@@]12CC[C@H](N[C@@H](CC(=O)O)C(=O)O)[C@@H]3Oc4c(O)ccc5c4[C@@]31CCN(C)[C@@H]2C5 [Compound 13a, (2S)-2-[(4,5α-Epoxy-3-hydroxy-14β-methoxy-17-methylmorphinan-6α-yl)-amino]butanedioic Acid Dihydrochloride] | 1.36 ± 0.05 | 14.6 ± 3.6 | 50.2 ± 9.2 | 4.1 ± 1.29 | – | 90 ± 7 | – | 10.1 ± 3.8 | 97 ± 3 | 2990 ± 659 | – | 83 ± 17 | 0.0382 | – | 1/11/37 | –
5 | CO[C@@]12CC[C@@H](N[C@@H](CC(=O)O)C(=O)O)[C@@H]3Oc4c(O)ccc5c4[C@@]31CCN(C)[C@@H]2C5 [Compound 13b, (2S)-2-[(4,5α-Epoxy-3-hydroxy-14β-methoxy-17-methylmorphinan-6β-yl)amino]butanedioic Acid Dihydrochloride] | 3.42 ± 0.05 | 22.6 ± 2.2 | 351 ± 43 | 1.45 ± 0.01 | partial agonists | ~70 | – | 11.8 ± 2.2 | 101 ± 1 | 753 ± 358 | – | 49 ± 7 | – | – | – | –
6 | CO[C@@]12CC[C@H](N[C@@H](C(=O)O)C(C)C)[C@@H]3Oc4c(O)ccc5c4[C@@]31CCN(C)[C@@H]2C5 [Compound 16a] | 1.7 ± 0.09 | 1.93 ± 0.24 | 202 ± 3 | 4.51 ± 2.35 | – | 105 ± 4 | ca. 4 times | 1.12 ± 0.69 | 93 ± 4 | 2220 ± 818 | full agonists | 96 ± 16 | – | – | – | 2–3 times
7 | CO[C@@]12CC[C@@H](NCCC(=O)O)[C@@H]3Oc4c(O)ccc5c4[C@@]31CCN(C)[C@@H]2C5 [Compound 20b, 3-[(4,5α-Epoxy-3-hydroxy-14β-methoxy-17-methylmorphinan-6β-yl)amino]propionic Acid Dihydrochloride] | 1.04 ± 0.04 | 13.9 ± 1.7 | 71.4 ± 4.6 | 5.74 ± 0.47 | – | ~80 | – | 20.1 ± 10.7 | 99 ± 3 | 622 ± 311 | – | 67 ± 12 | – | – | 1/13/69 | –
8 | CO[C@@]12CC[C@@H](NCCCC(=O)O)[C@@H]3Oc4c(O)ccc5c4[C@@]31CCN(C)[C@@H]2C5 [Compound 21b] | 1.41 ± 0.13 | 6.61 ± 0.67 | 147 ± 13 | 12.3 ± 6.8 | – | 86 ± 7 | 2–4 times | 6.06 ± 1.07 | 103 ± 6 | 3400 ± 1980 | full agonists | 74 ± 5 | – | – | – | –
